Columns and labels:
[1] = system: leukotriene E4 bronchoconstriction; assay: Guinea Pig Bronchoconstriction, In Vivo (Aerosol), leukotriene E4 challenge; design: species or system guinea pig (Hartley strain); settings: five minute exposure, drug concentration of aerosol solution (w/v), leukotriene E4 i.v.
Description: (b) Guinea Pig Bronchoconstriction, In Vivo (Aerosol):
Male guinea pigs (Hartley strain) weighing 300 to 500 g are anesthetized with urethane (2 g/kg) intraperitoneally and a polyethylene cannula is inserted into the jugular vein for drug administration. Tracheal pressure is recorded from a cannula inserted in the trachea and connected to a Statham pressure transducer. After surgical preparation of the animals, a period of time is allowed for pulmonary functions to stabilize. The test compound is administered according to the following protocol. Propanolol (0.1 mg/kg) is administered intravenously while the animals breathed spontaneously. Five minutes thereater, the animals are exposed for a five minute period to a 1% (w/v) aerosol solution of test compound (adjusted to an alkaline pH where necessary for drug solubilization) or to distilled water of thhe appropriate pH (for control purposes). A Monaghan (Model 750) ultrasonic nebulizer is used to administer all test compounds by inhalation. The nebulizer ultrasonic frequency is adjusted to produce particles in the 1-8μ diameter range (average 3μ). Aqueous solutions are prepared freshly and introduced into the chamber of the nebulizer. The output of the nebulizer is made available to the animal by directing a bias flow of aerosol through a Y tube connected to the trachel cannula. At the end of the exposure period, the animals are paralyzed with succinylcholine (1.2 mg/kg, i.v.) and mechanically respirated (Harvard rodent respirator) at 40 breaths/minute and 2.5 cc tidal volume. Animals are then challenged with a maximum constrictory dose of leukotriene E4 delivered intravenously 30 seconds after administration of the succinylcholine.
The change (cm H2 O) between pre and peak ventilatory pressure readings averaged for three control animals and five drug treated animals. The percent inhibition is calculated from the following formula: [formula] When various drug concentrations are tested, the percent inhibition at each concentration is plotted as log concentration (abscissa) versus percent inhibition (ordinate) and the IC50 is determined from linear regression analysis.

[2] = system: SRS-A-induced constriction of the guinea pig ileum; assay: Guinea Pig Ileum, In Vitro (SRS-A antagonism); assay type: cell-based; settings: Cavia porcellus; SRS-A-induced constriction, 37° C., SRS-A at its EC50; read-out: In vitro Guinea Pig ileum IC50
Description: (a) Guinea Pig Ileum, In Vitro:
The guinea pig ileum bioassay system has been described by Orange Austen, Adv. Immunol. […] A 1.5 cm segment is removed from animals weighing 300-400 g and suspended in an organ bath containing 10 ml of Tyrodes solution with 10^-6 M atropine sulfate and 10^-6 M pyrilamine maleate. […] The SRS-A utilized in this screen is obtained by challenging chopped lung fragments from actively sensitized guinea pigs with egg albumin, in vitro. A dose-response curve to SRS-A challenge is established for the ileum. […] The drug concentration which inhibits, by 50%, the SRS-A-induced constriction of the guinea pig ileum is determined.

[3] = system: leukotriene D4 induced bronchoconstriction; assay: Oral Testing of Leukotriene Antagonists, leukotriene D4 challenge; assay type: in vivo, guinea pig (Hartley strain); settings: Cavia porcellus, 2 h, p.o., two hours prior to challenge
Description: (c) Oral Testing of Leukotriene Antagonists
Male guinea pigs (Hartley strain, Charles River) weighing 400 to 600 g were anesthetized with urethane (2 g/kg) intraperitoneally and a polyethylene cannula was inserted into the jugular vein for intravenous drug administration. Tracheal pressure (cm water) was recorded from a Statham pressure transducer. After surgical preparation of the animals, a period of time was allowed for spontaneous breathing to stabilize. […] Two minutes later, spontaneous breathing was arrested with succinylcholine chloride (1.2 mg/kg, i.v.) and the animals ventilated with a Harvard (Model #680) small animal respirator set at 40 breaths per minute and 4.0 cc stroke volume. The animals were challenged with a maximum constrictory dose of either leukotriene C4 or leukotriene D4 or leukotriene E4 (25 μg/kg, i.v.) at 5 minutes. Control vehicle or test drug (adjusted to an alkaline pH where necessary for drug solubilization) was administered (10 mg/kg, p.o.) two hours prior to challenge with leukotriene. In order to determine the ID50 for a test drug, the dose is varied from 10 mg/kg, p.o. to 100, 50, 30, 20, 5, 3 and 1 mg/kg, p.o.
In order to determine oral duration of action, the time between exposure to test drug and challenge with leukotriene is varied.

SMILES	Guinea Pig Bronchoconstriction In vivo aerosol - IC50 [1] [%]	IC50 [2] [nM]	inhibition at 10 mg/kg [3] [%]
CCCc1c(OCCCCCOc2cc3c(cc2C(C)=O)CCC(CCCCC(=O)O)O3)ccc(C(C)=O)c1O (racemic) [racemic-6-acetyl-7-[5-(4-acetyl-3-hydroxy-2-propylphenoxy)pentyloxy]-3,4-dihydro-2H-1-benzopyran-2-pentanoic acid]	–	–	46 ± 14
CCCc1c(OCCCCCCCOc2cc3c(cc2C(C)=O)CCC(C(=O)O)O3)ccc(C(C)=O)c1O (racemic) [racemic-6-acetyl-7-[7-(4-acetyl-3-hydroxy-2-propylphenoxy)heptyloxy]-3,4-dihydro-2H-1-benzopyran2-carboxylic acid]	1.0	1000	–
CCCc1c(OCCCOc2ccc3c(c2CCC)OC(C)(CCC(=O)O)CC3)ccc(C(C)=O)c1O (racemic) [racemic-7-[3-(4-acetyl-3-hydroxy-2-n-propylphenoxy)propoxy]-3,4-dihydro-2-methyl-8-n-propyl-2H-1-benzopyran-2-propanoic acid]	0.71	500	–
CCCc1c(OCCCOc2ccc3c(c2)OC(CC(=O)O)CC3)ccc(C(C)=O)c1O (racemic) [racemic-7-[3-(4-acetyl-3-hydroxy-2-propylphenoxy)propoxy]-3,4-dihydro-2H-1-benzopyran-2-acetic acid]	0.67	100	–
CCCc1c(OCCCOc2cc3c(cc2C(C)=O)OC(C)(C(=O)O)CC3)ccc(C(C)=O)c1O (racemic) [racemic-7-acetyl-6-[3-(4-acetyl-3-hydroxy-2-propylphenoxy)propoxy]-3,4-dihydro-2-methyl-2H-1-benzopyran-2-carboxylic acid]	1.0	500	–
CCCc1c(OCCCOc2cc3c(cc2C(C)=O)OC(C(=O)O)CC3)ccc(C(C)=O)c1O (racemic) [racemic-7-acetyl-6-[3-(4-acetyl-3-hydroxy-2-propylphenoxy)propoxy]-3,4-dihydro-2H-1-benzopyran-2-carboxylic acid]	0.34	200	–
CCCc1c(OCCCOc2ccc3c(c2C(C)=O)OC(C(=O)O)CC3)ccc(C(C)=O)c1O (racemic) [racemic-8-acetyl-7-[3-(4-acetyl-3-hydroxy-2-propylphenoxy)propoxy]-3,4-dihydro-2H-1-benzopyran-2-carboxylic acid]	0.59	300	–

The remaining molecules from weak to strong by IC50 [2], led by results:

Guinea Pig Bronchoconstriction In vivo aerosol - IC50 [1] [%]	IC50 [2] [nM]	SMILES	inhibition at 10 mg/kg [3] [%]
0.20	100	CCCc1c(OCCCOc2ccc3c(c2CCC)OC(C(=O)O)CC3)ccc(C(C)=O)c1O (racemic) [racemic-7-[3-(4-acetyl-3-hydroxy-2-propyl)phenoxy)propoxy]-3,4-dihydro-8-propyl-2H-1-benzopyran-2-carboxylic acid]	–
> 1.0	100	CCCc1c(OCCCOc2ccc3c(c2)OC(C)(CCC(=O)O)CC3)ccc(C(C)=O)c1O (racemic) [racemic-7-[3-(4-acetyl-3-hydroxy-2-propylphenoxy)propoxy]-3,4-dihydro-2-methyl-2H-1-benzopyran-2-propanoic acid]	–
0.052	60	CCCc1c(OCCCCCOc2cc3c(cc2C(C)=O)CCC(C(=O)O)O3)ccc(C(C)=O)c1O (racemic) [racemic-6-acetyl-7-[5-(4-acetyl-3-hydroxy-2-propylphenoxy)pentyloxy]-3,4-dihydro-2H-1-benzopyran-2-carboxylic acid]	–
0.14	60	CCCc1c(OCCCOc2ccc3c(c2)OC(C(=O)O)CC3)ccc(C(C)=O)c1O (racemic) [racemic-7-[3-(4-acetyl-3-hydroxy-2-propylphenoxy)propoxy]-3,4-dihydro-2H-1-benzopyran-2-carboxylic acid]	–

From patent US4788214A, “3,4-dihydro-2H-1-benzopyran derivatives” (Hoffman-La Roche Inc., priority 1986, dated 1988)
